According to patent US20240059693A1, “FUSED BICYCLIC PYRAZOLE DERIVATIVES AND METHODS OF USE THEREOF FOR THE TREATMENT OF HERPESVIRUSES” (Merck Sharp & Dohme LLC, priority 2020, published 2024):
Like-named read-outs stand apart in the source and are kept apart here.

Experiments:
[1] = biological target: T1, Human cytomegalovirus DNA polymerase (Human cytomegalovirus, UniProt P08546); test: HCMV polymerase assay (AlphaLISA); format: biochemical; conditions: HCMV DNA polymerase 0.2 nM, 60 minutes at 37° C.; read-out: CMV (IC50)
T1 construct: made in house; host or cells: SF21 insect cells (baculovirus vector)
T1 sequence (P08546 whole entry): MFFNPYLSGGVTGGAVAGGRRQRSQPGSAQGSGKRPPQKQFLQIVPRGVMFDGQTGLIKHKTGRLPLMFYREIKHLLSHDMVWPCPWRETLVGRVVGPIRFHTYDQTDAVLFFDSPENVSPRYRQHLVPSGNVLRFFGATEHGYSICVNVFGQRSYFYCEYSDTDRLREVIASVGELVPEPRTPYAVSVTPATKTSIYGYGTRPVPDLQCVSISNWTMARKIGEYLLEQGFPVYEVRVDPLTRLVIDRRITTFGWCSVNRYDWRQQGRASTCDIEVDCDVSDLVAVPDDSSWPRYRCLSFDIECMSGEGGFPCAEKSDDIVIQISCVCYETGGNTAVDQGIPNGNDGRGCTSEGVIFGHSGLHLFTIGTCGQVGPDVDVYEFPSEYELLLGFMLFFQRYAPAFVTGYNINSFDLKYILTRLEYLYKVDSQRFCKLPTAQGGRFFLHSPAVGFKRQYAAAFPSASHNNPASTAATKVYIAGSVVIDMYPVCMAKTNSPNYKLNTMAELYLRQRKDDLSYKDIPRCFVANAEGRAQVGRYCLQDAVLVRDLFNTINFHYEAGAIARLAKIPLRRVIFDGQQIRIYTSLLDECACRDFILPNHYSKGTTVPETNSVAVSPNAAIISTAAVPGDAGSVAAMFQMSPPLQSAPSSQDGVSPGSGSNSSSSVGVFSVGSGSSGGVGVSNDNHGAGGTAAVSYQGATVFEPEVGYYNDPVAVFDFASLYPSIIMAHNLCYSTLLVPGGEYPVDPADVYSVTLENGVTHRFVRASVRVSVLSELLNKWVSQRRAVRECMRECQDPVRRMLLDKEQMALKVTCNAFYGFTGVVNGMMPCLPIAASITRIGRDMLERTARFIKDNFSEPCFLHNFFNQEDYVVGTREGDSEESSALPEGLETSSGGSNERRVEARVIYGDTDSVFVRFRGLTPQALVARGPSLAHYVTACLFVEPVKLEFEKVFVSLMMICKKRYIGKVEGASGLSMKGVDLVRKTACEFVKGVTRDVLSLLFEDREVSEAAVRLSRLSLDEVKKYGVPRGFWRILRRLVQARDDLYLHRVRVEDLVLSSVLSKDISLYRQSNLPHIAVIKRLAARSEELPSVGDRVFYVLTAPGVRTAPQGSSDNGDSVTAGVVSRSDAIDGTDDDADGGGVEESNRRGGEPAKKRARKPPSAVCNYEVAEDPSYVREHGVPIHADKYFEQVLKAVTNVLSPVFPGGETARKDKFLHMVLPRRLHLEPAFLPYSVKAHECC
Protocol: Human cytomegalovirus and varicella zoster virus DNA polymerases were expressed via baculovirus vector in SF21 cells and purified. Heterodimeric nucleic acid substrate used in the herpesvirus polymerase reactions was generated by annealing a 59-mer template to a 17-mer digoxigenin-labeled primer. Polymerase (HCMV final concentration of 0.2 nM; VZV final concentration of 0.4 nM) was combined with an inhibitor compound or DMSO in assay buffer (10 mM HEPES, pH 7.5, 25 mM KCl, 25 mM NaCl, 5 mM MgCl2, 5% glycerol, 0.67 mg/ml bovine serum albuminutes, and 1 mM tris(2-carboxyethyl)phosphine), and this mixture was pre-incubated for 30 minutes at room temperature in 384-well microtiter plates. The polymerization reaction was initiated by the addition of template/primer substrate (final concentration: 1.6 nM), and dNTPs (final concentration: 24 nM dCTP, 24 nMdGTP, 16 nM dATP, 16 nM dTTP, and 0.8 nM biotin-dUTP). After 60 minutes incubation at 37° C., reactions were terminated with quench buffer (25 mM HEPES pH 7.5, 100 mM NaCl, 0.25% Tween-20, 12 mM EDTA, and 1 mg/ml bovine serum albumin). Incorporation of biotinylated UTP was detected with 2.5-ug/ml anti-DIG AlphaLISA acceptor beads and 5-10 ug/ml streptavidin AlphaLISA donor beads (Perkin Elmer). Compound effects were normalized to the window defined by the controls (DMSO only and pre-quenched wells) and were fit using a 4-parameter algorithm to report an IC50.

[2] = tested on: HCMV Strain AD169; test: Viral qPCR assay, HCMV in MRC-5 cells; format: cell-based, Human cytomegalovirus; conditions: read-out: CMV MRC5 Cell (EC50)
Protocol: (§1) MRCS cells, Vero cells, and MeWo cells were obtained from ATCC and were maintained at 37° C./5% CO2/90% relative humidity in Minimal Essential Medium with 10% fetal bovine serum, […] L-glutamine, 100 units/ml penicillin and 100 ug/ml streptomycin. Assay plates were prepared by dispensing compounds dissolved in DMSO into wells of 384 well collagen-coated plates using an ECHO acoustic dispenser. Each compound was tested in a 10-point, serial 3-fold dilution. Controls included uninfected cells and infected cells treated only with DMSO. Assays were initiated by mixing selected cells, in suspension, with virus, and dispensing 50 μl/well infected cells to pre-plated compounds. Plates were incubated at 37° C./5% CO2/90% relative humidity for ˜72 hrs to permit genomic replication, and infected cells were lysed by the addition of an equal volume of lysis buffer (10 mM Tris-HCl, pH8, 50 mM KCl, 2 mM MgCl2, 0.45% NP-40, 0.45% Tween-20, and 100 μg/ml proteinase K). An aliquot of the lysate was transferred to a 384-well PCR plate and incubated at 56° C. for 1 hour and then at 95° C. for 10 min. Levels of a viral gene and of the cellular control, PPIA (Thermo Fisher Assay ID=Hs04194521_s1), were measured in separate 10 μL qPCR assays using TaqMan® Gene Expression Master Mix (Applied Biosystems), and an 7900HT Fast Real-Time PCR System with 384-Well Block Module. 7-point, serial 10-fold dilutions of a plasmid standard were run on each plate to generate a standard curve, and genome copies numbers were calculated by plotting experimental Ct onto linear regression of the standard curve. Viral genome copy numbers were normalized by cellular control copy number, and compound effects were normalized to the window defined by the controls. Calculated % effects were fit using a 4-parameter algorithm, and EC50 was reported.
as §1, with “gene” for “gene and of the cellular control, PPIA (Thermo Fisher Assay ID=Hs04194521_s1),”, “in” for “in separate”, “Compound effects on viral” for “Viral”, “number” for “numbers were normalized by cellular control copy number, and compound effects”
HCMV: Strain AD169 Street was assayed in MRC-5 cells and was used at 0.05-0.1 pfu/cell. The assays were performed in either growth media or in the same media with 50% fetal bovine serum. Primer-probe set was Thermo Fisher Assay ID=AIFATFK.

[3] = Human betaherpesvirus 5, AD169, MRC5, 72 h

| Compound | IC50 [1] | EC50 ([2]; MRC5 cells, ~72 hrs) | EC50 [2, 3] |
| --- | --- | --- | --- |
| CC([C@@H]1CCC(=O)N1)N1Cc2c(C(=O)NCc3ccc(Cl)cc3)nn(-c3nccs3)c2C1 (single isomer, unassigned) [Compound 6] | 0.958 µM | 5.87 µM |  |
| CC1c2c(c(C(=O)NCc3ccc(Cl)cc3)nn2C)CN1CC1CCC(=O)N1 (single isomer, unassigned) [Compound 102] | 5.77 µM | 71.2 µM |  |
| CCC1c2c(c(C(=O)NCc3ccc(Cl)cc3)nn2C)CN1CC1CCC(=O)N1 (single isomer, unassigned) [Compound 104] | 1.81 µM | 38.7 µM |  |
| CC1c2c(c(C(=O)NCc3ccc(Cl)cc3)nn2C)CN1CC1CCC(=O)N1 (single isomer, unassigned) [Compound 108] | 0.702 µM | 1.96 µM |  |
| CC(C)[C@H]1c2c(c(C(=O)NCc3ccc(Cl)cc3)nn2C)CN1C(C)C1CCC(=O)N1 (single isomer, unassigned) [Compound 115] | 0.566 µM |  | 4.24 µM |
| CC(C)[C@H]1c2c(c(C(=O)NCc3ccc(Cl)cc3)nn2C)CN1C(C)C1CCC(=O)N1 (single isomer, unassigned) [Compound 116] | 10.9 µM | 99 µM |  |
| CC(C)[C@H]1c2c(c(C(=O)NCc3ccc(Cl)cc3)nn2C)CN1C(C)C1CCC(=O)N1 (single isomer, unassigned) [Compound 117] | 0.68 µM | 4.64 µM |  |
| CC(C)[C@H]1c2c(c(C(=O)NCc3ccc(Cl)cc3)nn2C)CN1C(C)C1CCC(=O)N1 (single isomer, unassigned) [Compound 118] | 0.0837 µM | 1.6 µM |  |
| CC(=O)OCC1c2c(c(C(=O)NCc3ccc(Cl)cc3)nn2C)CN1C[C@H]1CCC(=O)N1 (single isomer, unassigned) [Compound 119] | 7.85 µM | 99 µM |  |
| Cn1nc(C(=O)NCc2ccc(Cl)cc2)c2c1C(CO)N(C[C@H]1CCC(=O)N1)C2 (single isomer, unassigned) [Compound 121] | 13.3 µM |  | 99 µM |
| O=C1CC[C@H](CN2Cc3c(C(=O)NCc4ccc(Cl)cc4)nn(-c4ncc(CO)s4)c3C2)N1 [Compound 9] | 0.0192 µM |  | 0.644 µM |
| O=C1CC[C@H](CN2Cc3c(C(=O)NCc4ccc(Cl)cc4)nn(-c4nc(-c5ccccc5)cs4)c3C2)N1 [Compound 15] | 0.031 µM |  | 1.1 µM |
| O=C1CC[C@H](CN2Cc3c(C(=O)NCc4ccc(Cl)cc4)nn(-c4ncc(O)cn4)c3C2)N1 [Compound 17] | 0.0361 µM |  | 51.4 µM |
| CC(C)(C)c1csc(-n2nc(C(=O)NCc3ccc(Cl)cc3)c3c2CN(C[C@H]2CCC(=O)N2)C3)n1 [Compound 21] | 0.157 µM |  | 2.67 µM |
| O=C1CC[C@H](CN2Cc3c(C(=O)NCc4ccc(Cl)cc4)nn([C@@H]4CCCOC4)c3C2)N1 [Compound 49] | 0.0875 µM |  | 3.54 µM |
| O=C1CC[C@H](CN2Cc3c(C(=O)NCc4ccc(Cl)cc4)nn(C4CCOCC4)c3C2)N1 [Compound 50] | 0.125 µM |  | 1.49 µM |
| O=C1CC[C@H](CN2Cc3c(C(=O)NCc4ccc(Cl)cc4)nn([C@H]4CCCOC4)c3C2)N1 [Compound 51] | 0.129 µM |  | 1.79 µM |
| O=C1CC[C@@H](CN2Cc3c(C(=O)NCc4ccc(Cl)cc4)nn([C@H]4CCCOC4)c3C2)N1 [Compound 52] | 0.15 µM |  | 0.885 µM |
| O=C1CC[C@@H](CN2Cc3c(C(=O)NCc4ccc(Cl)cc4)nn(C4CCOCC4)c3C2)N1 [Compound 53] | 0.124 µM |  | 2.09 µM |
| Cn1nc(C(=O)NCc2ccc(C#N)c(F)c2)c2c1CN(C[C@H]1CCC(=O)N1)C2 [Compound 62] | 0.0625 µM |  |  |
| O=C(NCc1ccc(Cl)cc1)c1nn(CCNC(=O)C2CCC2)c2c1CN(Cc1c(F)cncc1F)C2 [Compound 64] | 0.064 µM |  |  |
| CN(CCn1nc(C(=O)NCc2ccc(Cl)cc2)c2c1CN(Cc1ccncc1Cl)C2)C(=O)C1CCC1 [Compound 65] | 0.0645 µM |  |  |
| O=C(NCc1ccc(Cl)cc1)c1nn(CCNC(=O)C2CCC2)c2c1CN(Cc1ccnc(F)c1)C2 [Compound 67] | 0.119 µM |  |  |
| O=C(NCc1ccc(Cl)cc1)c1nn(CCNC(=O)C2CCC2)c2c1CN(Cc1ccncc1Cl)C2 [Compound 70] | 1.71 µM |  |  |
| CC([C@@H]1CCC(=O)N1)N1Cc2c(C(=O)NCc3ccc(Cl)cc3)nn(C(F)F)c2C1 (stereo partly shown) [Compound 72] | 0.976 µM |  |  |

More lines, main results first:

| IC50 [1] | Compound | EC50 ([2]; MRC5 cells, ~72 hrs) | EC50 [2, 3] |
| --- | --- | --- | --- |
| 0.146 µM | O=C1CC[C@@H](CN2Cc3c(C(=O)NCc4ccc(Cl)cc4)nn(C4CCC(F)(F)C4)c3C2)N1 (single isomer, unassigned) [Compound 54] | 1.58 µM |  |
| 13.3 µM | CC(C1CC(F)(F)C(=O)N1)N1Cc2c(C(=O)NCc3ccc(Cl)cc3)nn(C)c2C1 (single isomer, unassigned) [Compound 83] |  | 99 µM |
| 0.8 µM | CCC(C1CCC(=O)N1)N1Cc2c(C(=O)NCc3ccc(Cl)cc3)nn(C)c2C1 (single isomer, unassigned) [Compound 89] |  | 7.64 µM |
| 0.0258 µM | O=C1CC[C@H](CN2Cc3c(C(=O)NCc4ccc(Cl)cc4)nn(-c4ncc[nH]4)c3C2)N1 [Compound 14] |  | 1.03 µM |
| 0.148 µM | Cn1nccc1-n1nc(C(=O)NCc2ccc(Cl)cc2)c2c1CN(C[C@H]1CCC(=O)N1)C2 [Compound 24] |  | 0.997 µM |
| 0.129 µM | CC(C)C(O)Cn1nc(C(=O)NCc2ccc(Cl)cc2)c2c1CN(C[C@H]1CCC(=O)N1)C2 (stereo partly shown) [Compound 56] |  | 1.79 µM |
| 0.815 µM | CC(C1CC(F)C(=O)N1)N1Cc2c(C(=O)NCc3ccc(Cl)cc3)nn(C)c2C1 (stereo not shown) [Compound 74] | 28.1 µM |  |
| 0.0709 µM | CC(C1CC(F)C(=O)N1)N1Cc2c(C(=O)NCc3ccc(Cl)cc3)nn(C)c2C1 (stereo not shown) [Compound 75] | 2.02 µM |  |
| 0.557 µM | Cn1nc(C(=O)NCc2ccc(Cl)cc2)c2c1CN(C[C@H]1CC(F)(F)C(=O)N1)C2 [Compound 81] |  | 1.28 µM |
| 13.3 µM | CC(C1CC(F)(F)C(=O)N1)N1Cc2c(C(=O)NCc3ccc(Cl)cc3)nn(C)c2C1 (stereo not shown) [Compound 84] | 40 µM |  |
| 1.05 µM | CC(C1CC(F)(F)C(=O)N1)N1Cc2c(C(=O)NCc3ccc(Cl)cc3)nn(C)c2C1 (stereo not shown) [Compound 85] | 3.37 µM |  |
| 0.174 µM | Cc1nnc2n1C(CN1Cc3c(C(=O)NCc4ccc(Cl)cc4)nn(C)c3C1)CC2 (stereo not shown) [Compound 97] |  |  |
